From patent publication US4244967A, “Antiphlogistic pharmaceutical compositions containing a phenylethanolamine and methods of use” (priority 1978, dated 1981)
“And” between values parts separate entries of the source, which are not always exact repeats. Equal entries are not always repeated.

Experiments:
[1] = system: human polymorphnuclear leucocytes (PMN); assay: Inhibition of the release of lysosomal β-glucuronidase from human polymorphnuclear leucocytes (PMN) during phagocytosis of zymosan particles; format: cell-based; conditions: in vitro; for IC20: Homo sapiens, Leucocyte, 20% inhibition of release (EC20, not EC50), zymosan-phagocytosis, Fieller confidence limits given
Method: The compounds were tested for their inhibitory effect on the release of lyosomal enzymes (β-glucuronidase was the lysomal marker-enzyme) from human polymorphnuclear leucocytes (PMN) during the phagocytosis of zymosan particles. According to WEISSMANN, the release of lyosomal enzymes in the course of the phagocytosis of immune complexes plays a significant role for the "self perpetuation" in rheumatoid arthritis. The test was performed according to the method of WEISSMANN et al. [J. Exp. Med. 134, 149s-165s (1971)]. The buffer system and the incubation times were changed, the number of the zymosan particles and the number of PMN was standardized. From the inhibiting effects produced by the test substance in comparison with the zymosan control, an EC20 with confidence limits according to FIELLER (Quart. J. Pharm. Pharmacol. 17, 117-123 (1944) was calculated by linear regression analysis according to LINDER [Stat. Methoden, 4th Ed., 148-162, published by Birkhauser, Basel, Switzerland (1964)] as the end concentration of the test substance that produced a 20% inhibition of the release of lysosomal β-glucuronidasefrom human polymorphnuclear leucocytes in vitro during the zymosan-phagocytosis.
Effect on the release of lysosomal β-glucuronidase from human polymorph-nucleic leucocytes under zymosan-phagocytosis.

[2] = long-lasting in vivo activity compared with other β-mimetics; conditions: no data given
enteral absorption = format: in vivo; conditions: no data given

CC(C)(C)NCC(O)c1cc(O)cc(O)c1 (centres unmarked) [B, reference compound]
IC20 [1]: 2.4 µM and 0.658 µg/mL

CCOC(=O)Nc1c(F)cc(C(O)CNC(C)(C)C)cc1C#N.Cl (centres unmarked) [Compound A, 1-(4-ethoxycarbonylamino-3-cyano-5-fluoro-phenyl)-2-tert. butylamino-ethanol hydrochloride]
in vivo activity, duration [2]: long-lasting
enteral absorption (enteral absorption): very good
IC20 [1]: 130 nM and 0.0468 µg/mL
stronger inhibitor of the release of lysosomal enzymes than terbutaline sulfate ([1]; relative to terbutaline sulfate (B)): about 18 times stronger
